From patent US6989351B2, “Metabolic inhibitors against brassinosteroids” (Riken, priority 2000, dated 2006)

Experiments:
[1] = test system: metabolism of brassinolide; assay: brassinolide metabolism in cell free system (degradation associated with oxidation of the 26th position of brassinolide); format: biochemical; conditions: cell free system from immature seeds of Pisum sativum
Procedure: To examine whether the accelerating activity on elongation of the cress hypocotyl was on the basis of the inhibitory activity against the metabolism of brassinolide, which is considered to be a practically active brassinosteroid, activity of the compounds was examined in degradation system associated with oxidation of the 26th position of brassinolide. Immature seeds of Pisum sativum were used as plant materials. Brassinolide was added to a cell free system, and metabolic activity was determined by quantifying the compound at the right end in the following scheme to examine inhibitory action of difenoconazole against metabolism. [drawing 6]

[2] = test system: brassinosteroid biosynthesis; assay: action on plants when used at a high concentration
Excerpt: Methods of application and doses of the metabolism inhibitor of the present invention can be suitably chosen by those skilled in the art depending on conditions including a purpose of application, a dosage form, a plot to be treated and the like. […] Such a phenomenon is recognized in difenoconazole, Brz217, Brz218, Brz224, Brz225 and the like, which are typical examples of the metabolism inhibitor of the present invention. Therefore, the metabolism inhibitor of the present invention is preferably applied to plants at a relatively low concentration. However, concentrations to achieve optimum action can be appropriately determined by those skilled in the art by referring to the following examples.

Row | Compound | Ratio of metabolism inhibition degree (%) relative to control ([1]; 0.01 μM) [%] | Ratio of metabolism inhibition degree (%) relative to control ([1]; 0.1 μM) [%] | Ratio of metabolism inhibition degree (%) relative to control ([1]; 1.0 μM) [%] | Ratio of metabolism inhibition degree (%) relative to control ([1]; 10 μM) [%] | action at a high concentration, opposite to the action of the metabolism inhibitor [2]
1 | CC1COC(Cn2cncn2)(c2ccc(Oc3ccc(Cl)cc3)cc2Cl)O1 (stereo not drawn) [Difenoconazole, difenoconazole] | 0 | 7 | 72 | 76 | inhibit brassinosteroid biosynthesis when used at a high concentration
2 | CCCC1COC(Cn2cncn2)(c2ccc(OC)cc2)O1 (stereo not drawn) [Brz224] |  |  |  |  | inhibit brassinosteroid biosynthesis when used at a high concentration
3 | CCCC1COC(Cn2cncn2)(c2ccccc2Cl)O1 (stereo not drawn) [Brz217] |  |  |  |  | inhibit brassinosteroid biosynthesis when used at a high concentration
4 | COCC1COC(Cn2cncn2)(c2ccc(Cl)cc2)O1 (stereo not drawn) [Brz225] |  |  |  |  | inhibit brassinosteroid biosynthesis when used at a high concentration
5 | CCCC1COC(Cn2cncn2)(c2cccc(Cl)c2)O1 (stereo not drawn) [Brz218] |  |  |  |  | inhibit brassinosteroid biosynthesis when used at a high concentration
